# Measurements as given in PubChem BioAssay AID2060361 (Molecular Pharmacology Branch, DTP, NCI, 2025).
# Test system: 463943-066-T-J2-PDC tumor spheroids with HUVEC/MSC, viability
# Assay: Anticancer human tumor 463943-066-T-J2-PDC patient-derived colon adenocarcinoma cell line growth inhibition [TAK]
# Details: for IC50: curve of first compound; for viability, T/C: stronger effect = lower value
# Method in brief: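 Drug combinations, each paired with TAK-243 or ipatasertib, were tested on multi-cell spheroids of 60% malignant cells, 25% HUVEC and 15% hMSC. Top concentrations were at or near the clinical Cmax (10 microM if undetermined), decreasing by half-log; viability is given as % test/control.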
# [1] = second compound 0.3 µM, first compound 0.0316 µM
# [2] = second compound 0.3 µM, first compound 0.1 µM
# [3] = second compound 0.3 µM, first compound 0.316 µM
# [4] = second compound 0.3 µM, first compound 1 µM
# [5] = second compound 0.3 µM, first compound 3.16 µM
# [6] = second compound 0.3 µM, first compound 10 µM
# [7] = second compound 0.949 µM, first compound 0.0316 µM
# [8] = second compound 0.949 µM, first compound 0.1 µM
# [9] = second compound 0.949 µM, first compound 0.316 µM
# [10] = second compound 0.949 µM, first compound 1 µM
# [11] = second compound 0.949 µM, first compound 3.16 µM
# [12] = second compound 0.949 µM, first compound 10 µM
# [13] = second compound 3 µM, first compound 0.0316 µM
# [14] = second compound 3 µM, first compound 0.1 µM
# [15] = second compound 3 µM, first compound 0.316 µM
# [16] = second compound 3 µM, first compound 1 µM
# [17] = second compound 3 µM, first compound 3.16 µM
# [18] = second compound 3 µM, first compound 10 µM
# [19] = second compound 9.49 µM, first compound 0.0316 µM
# [20] = second compound 9.49 µM, first compound 0.1 µM
# [21] = second compound 9.49 µM, first compound 0.316 µM
# [22] = second compound 9.49 µM, first compound 1 µM
# [23] = second compound 9.49 µM, first compound 3.16 µM
# [24] = second compound 9.49 µM, first compound 10 µM
# [25] = second compound 30 µM, first compound 0.0316 µM
# [26] = second compound 30 µM, first compound 0.1 µM
# [27] = second compound 30 µM, first compound 0.316 µM
# [28] = second compound 30 µM, first compound 1 µM
# [29] = second compound 30 µM, first compound 3.16 µM
# [30] = second compound 30 µM, first compound 10 µM
# [31] = second compound 0.3 µM, first compound 0.00316 µM
# [32] = second compound 0.3 µM, first compound 0.01 µM
# [33] = second compound 0.949 µM, first compound 0.00316 µM
# [34] = second compound 0.949 µM, first compound 0.01 µM
# [35] = second compound 3 µM, first compound 0.00316 µM
# [36] = second compound 3 µM, first compound 0.01 µM
# [37] = second compound 9.49 µM, first compound 0.00316 µM
# [38] = second compound 9.49 µM, first compound 0.01 µM
# [39] = second compound 30 µM, first compound 0.00316 µM
# [40] = second compound 30 µM, first compound 0.01 µM
# 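Also: spheroids exposed to drugs for seven days.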
# 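For viability, T/C in this document: 100% = DMSO vehicle control wells.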
smiles,measurement,setting,value
CC(C)(C)c1nc(-c2cccc(NS(=O)(=O)c3c(F)cccc3F)c2F)c(-c2ccnc(N)n2)s1 + CC(C)NCC(C(=O)N1CCN(c2ncnc3c2C(C)CC3O)CC1)c1ccc(Cl)cc1,IC50,second compound 0.3 µM,> 10 µM
same,IC50,second compound 0.949 µM,> 10 µM
same,IC50,second compound 3 µM,> 10 µM
same,IC50,second compound 9.49 µM,> 10 µM
same,IC50,second compound 30 µM,> 10 µM
same,"viability, T/C",[1],110%
same,"viability, T/C",[2],111%
same,"viability, T/C",[3],107%
same,"viability, T/C",[4],112%
same,"viability, T/C",[5],100%
same,"viability, T/C",[6],92.5%
same,"viability, T/C",[7],115%
same,"viability, T/C",[8],111%
same,"viability, T/C",[9],105%
same,"viability, T/C",[10],111%
same,"viability, T/C",[11],103%
same,"viability, T/C",[12],88.3%
same,"viability, T/C",[13],99%
same,"viability, T/C",[14],109%
same,"viability, T/C",[15],92.2%
same,"viability, T/C",[16],102%
same,"viability, T/C",[17],110%
same,"viability, T/C",[18],101%
same,"viability, T/C",[19],100%
same,"viability, T/C",[20],111%
same,"viability, T/C",[21],99.2%
same,"viability, T/C",[22],109%
same,"viability, T/C",[23],107%
same,"viability, T/C",[24],104%
same,"viability, T/C",[25],91%
same,"viability, T/C",[26],98.6%
same,"viability, T/C",[27],100%
same,"viability, T/C",[28],97.2%
same,"viability, T/C",[29],104%
same,"viability, T/C",[30],91.1%
CC(C)n1nc(-c2ccc3oc(N)nc3c2)c2c(N)ncnc21 + CC(C)NCC(C(=O)N1CCN(c2ncnc3c2C(C)CC3O)CC1)c1ccc(Cl)cc1,IC50,second compound 0.3 µM,> 0.1 µM
same,IC50,second compound 0.949 µM,> 0.1 µM
same,IC50,second compound 3 µM,> 0.1 µM
same,IC50,second compound 9.49 µM,> 0.1 µM
same,IC50,second compound 30 µM,> 0.1 µM
same,"viability, T/C","second compound 0.3 µM, first compound 0.000316 µM",112%
same,"viability, T/C","second compound 0.3 µM, first compound 0.001 µM",102%
same,"viability, T/C",[31],105%
same,"viability, T/C",[32],95.2%
same,"viability, T/C",[1],79.6%
same,"viability, T/C",[2],74.1%
same,"viability, T/C","second compound 0.949 µM, first compound 0.000316 µM",100%
same,"viability, T/C","second compound 0.949 µM, first compound 0.001 µM",97.2%
same,"viability, T/C",[33],81.8%
same,"viability, T/C",[34],78.6%
same,"viability, T/C",[7],82.7%
same,"viability, T/C",[8],78.5%
same,"viability, T/C","second compound 3 µM, first compound 0.000316 µM",95.2%
same,"viability, T/C","second compound 3 µM, first compound 0.001 µM",106%
same,"viability, T/C",[35],93.4%
same,"viability, T/C",[36],89.8%
same,"viability, T/C",[13],85.3%
same,"viability, T/C",[14],78.2%
same,"viability, T/C","second compound 9.49 µM, first compound 0.000316 µM",103%
same,"viability, T/C","second compound 9.49 µM, first compound 0.001 µM",91.6%
same,"viability, T/C",[37],91.4%
same,"viability, T/C",[38],88.3%
same,"viability, T/C",[19],82.6%
same,"viability, T/C",[20],74.1%
same,"viability, T/C","second compound 30 µM, first compound 0.000316 µM",86.1%
same,"viability, T/C","second compound 30 µM, first compound 0.001 µM",106%
same,"viability, T/C",[39],83.2%
same,"viability, T/C",[40],89%
same,"viability, T/C",[25],82%
same,"viability, T/C",[26],74.6%
CCCS(=O)(=O)Nc1ccc(F)c(C(=O)c2c[nH]c3ncc(-c4ccc(Cl)cc4)cc23)c1F + CC(C)NCC(C(=O)N1CCN(c2ncnc3c2C(C)CC3O)CC1)c1ccc(Cl)cc1,IC50,second compound 0.3 µM,> 100 µM
same,IC50,second compound 0.949 µM,> 100 µM
same,IC50,second compound 3 µM,> 100 µM
same,IC50,second compound 9.49 µM,> 100 µM
same,IC50,second compound 30 µM,> 100 µM
same,"viability, T/C",[3],105%
same,"viability, T/C",[4],102%
same,"viability, T/C",[5],104%
same,"viability, T/C",[6],99.7%
same,"viability, T/C","second compound 0.3 µM, first compound 31.6 µM",125%
same,"viability, T/C","second compound 0.3 µM, first compound 100 µM",105%
same,"viability, T/C",[9],108%
same,"viability, T/C",[10],104%
same,"viability, T/C",[11],103%
same,"viability, T/C",[12],106%
same,"viability, T/C","second compound 0.949 µM, first compound 31.6 µM",64.2%
same,"viability, T/C","second compound 0.949 µM, first compound 100 µM",110%
same,"viability, T/C",[15],103%
same,"viability, T/C",[16],109%
same,"viability, T/C",[17],92.7%
same,"viability, T/C",[18],92%
same,"viability, T/C","second compound 3 µM, first compound 31.6 µM",88.4%
same,"viability, T/C","second compound 3 µM, first compound 100 µM",104%
same,"viability, T/C",[21],102%
same,"viability, T/C",[22],109%
same,"viability, T/C",[23],98.2%
same,"viability, T/C",[24],89.6%
same,"viability, T/C","second compound 9.49 µM, first compound 31.6 µM",68.6%
same,"viability, T/C","second compound 9.49 µM, first compound 100 µM",109%
same,"viability, T/C",[27],87.5%
same,"viability, T/C",[28],94.7%
same,"viability, T/C",[29],91.9%
same,"viability, T/C",[30],88.9%
same,"viability, T/C","second compound 30 µM, first compound 31.6 µM",25.6%
same,"viability, T/C","second compound 30 µM, first compound 100 µM",95.8%
COc1c(OCCCN2CCOCC2)ccc2c3n(c(=NC(=O)c4cnc(N)nc4)nc12)CCN3 + CC(C)NCC(C(=O)N1CCN(c2ncnc3c2C(C)CC3O)CC1)c1ccc(Cl)cc1,IC50,second compound 0.3 µM,> 1 µM
same,IC50,second compound 0.949 µM,> 1 µM
same,IC50,second compound 3 µM,> 1 µM
same,IC50,second compound 9.49 µM,> 1 µM
same,IC50,second compound 30 µM,> 1 µM
same,"viability, T/C",[31],91.4%
same,"viability, T/C",[32],91.3%
same,"viability, T/C",[1],85%
same,"viability, T/C",[2],77.1%
same,"viability, T/C",[3],70.3%
same,"viability, T/C",[4],66.5%
same,"viability, T/C",[33],88.6%
same,"viability, T/C",[34],93.1%
same,"viability, T/C",[7],75.1%
same,"viability, T/C",[8],78.2%
same,"viability, T/C",[9],77.2%
same,"viability, T/C",[10],68.1%
same,"viability, T/C",[35],93.7%
same,"viability, T/C",[36],86.8%
same,"viability, T/C",[13],83.5%
same,"viability, T/C",[14],79.8%
same,"viability, T/C",[15],79.8%
same,"viability, T/C",[16],77%
same,"viability, T/C",[37],81.3%
same,"viability, T/C",[38],85.5%
same,"viability, T/C",[19],86.4%
same,"viability, T/C",[20],73.6%
same,"viability, T/C",[21],75.6%
same,"viability, T/C",[22],71.2%
same,"viability, T/C",[39],85.6%
same,"viability, T/C",[40],87.5%
same,"viability, T/C",[25],74.6%
same,"viability, T/C",[26],73.9%
same,"viability, T/C",[27],66.5%
same,"viability, T/C",[28],71.2%
Cc1nc(NC(=O)N2CCCC2C(N)=O)sc1-c1ccnc(C(C)(C)C(F)(F)F)c1 (stereo not given) + CC(C)NCC(C(=O)N1CCN(c2ncnc3c2C(C)CC3O)CC1)c1ccc(Cl)cc1,IC50,second compound 0.3 µM,> 10 µM
same,IC50,second compound 0.949 µM,> 10 µM
same,IC50,second compound 3 µM,> 10 µM
same,IC50,second compound 9.49 µM,> 10 µM
same,IC50,second compound 30 µM,> 10 µM
same,"viability, T/C",[1],106%
same,"viability, T/C",[2],99.8%
same,"viability, T/C",[3],105%
same,"viability, T/C",[4],87.8%
same,"viability, T/C",[5],81%
same,"viability, T/C",[6],79.3%
same,"viability, T/C",[7],104%
same,"viability, T/C",[8],89.9%
same,"viability, T/C",[9],91.8%
same,"viability, T/C",[10],89.2%
same,"viability, T/C",[11],78.4%
same,"viability, T/C",[12],78.1%
same,"viability, T/C",[13],98%
same,"viability, T/C",[14],100%
same,"viability, T/C",[15],88.4%
same,"viability, T/C",[16],88.8%
same,"viability, T/C",[17],81.1%
same,"viability, T/C",[18],75%
same,"viability, T/C",[19],89.6%
same,"viability, T/C",[20],95.3%
same,"viability, T/C",[21],90.7%
same,"viability, T/C",[22],86.9%
same,"viability, T/C",[23],79.5%
same,"viability, T/C",[24],80.7%
same,"viability, T/C",[25],92.7%
same,"viability, T/C",[26],94.4%
same,"viability, T/C",[27],88.2%
same,"viability, T/C",[28],92.8%
same,"viability, T/C",[29],90.5%
same,"viability, T/C",[30],76.6%
